Test results as given in ChEMBL document CHEMBL1201862, “PubChem BioAssay data set” (2004).
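Each compound was tested at five concentrations against cells in 96-well plates for 48 hours. GI50 = concentration required for 50% inhibition of growth.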 Active and inactive are the calls of the source. Cut-off read from the data, not from the text of the source: active = GI50 up to about 1.1 µM and inactive = higher. Non-standard residues stand in square brackets, D forms with d. Residues, ends and D or L forms follow the SMILES beside them. ξ: configuration not given here. *: point of attachment. NMeF = CN[C@@H](Cc1ccccc1)C(=O)O; ξNMeV = CNC(C(=O)O)C(C)C; Boc = CC(C)(C)OC(=O)*; OBn = c1ccc(CO*)cc1

Key:
Experiment in all cases: growth of human tumour cells (NCI), 48 h
OVCAR-4 = tested on: OVCAR-4
786-0 = tested on: 786-0
HOP-62 = tested on: HOP-62
Malme-3M = tested on: Malme-3M
TK-10 = tested on: TK-10
SK-MEL-2 = tested on: SK-MEL-2
KM12 = tested on: KM12
SW-620 = tested on: SW-620
UO-31 = tested on: UO-31
OVCAR-8 = tested on: OVCAR-8
SK-MEL-28 = tested on: SK-MEL-28
LOX IMVI = tested on: LOX IMVI
KM-20L2 = tested on: KM-20L2
A498 = tested on: A498
HT-29 = tested on: HT-29
HCC 2998 = tested on: HCC 2998
UACC-62 = tested on: UACC-62
NCI/ADR-RES = tested on: NCI/ADR-RES
BT-549 = tested on: BT-549
DU-145 = tested on: DU-145

| Compound | GI50 (OVCAR-4) | GI50 (786-0) | GI50 (HOP-62) | GI50 (Malme-3M) | GI50 (TK-10) | GI50 (SK-MEL-2) | GI50 (KM12) | GI50 (SW-620) | GI50 (UO-31) | GI50 (OVCAR-8) | GI50 (SK-MEL-28) | GI50 (LOX IMVI) | GI50 (KM-20L2) | GI50 (A498) | GI50 (HT-29) | GI50 (HCC 2998) | GI50 (UACC-62) | GI50 (NCI/ADR-RES) | GI50 (BT-549) | GI50 (DU-145) |
| --- | --- | --- | --- | --- | --- | --- | --- | --- | --- | --- | --- | --- | --- | --- | --- | --- | --- | --- | --- | --- |
| COC(=O)C(C(=O)C(=O)Nc1ccc([N+](=O)[O-])cc1)c1nc2ccc([N+](=O)[O-])cc2nc1O (configuration not stated) | > 100 µM (inactive) | > 100 µM (inactive) | > 100 µM (inactive) | > 100 µM (inactive) | > 100 µM (inactive) | > 100 µM (inactive) | > 100 µM (inactive) | > 100 µM (inactive) | > 100 µM (inactive) | > 100 µM (inactive) | > 100 µM (inactive) | > 100 µM (inactive) | > 100 µM (inactive) | > 100 µM (inactive) | > 100 µM (inactive) | > 100 µM (inactive) | 63.1 µM (inactive) |  |  |  |
| COC(=O)C(Cc1nc2ccccc2nc1C)/C(=N\NC(N)=O)C(=O)Nc1cccc([N+](=O)[O-])c1 (configuration not stated) | > 100 µM (inactive) | > 100 µM (inactive) | > 100 µM (inactive) | > 100 µM (inactive) | > 100 µM (inactive) | > 100 µM (inactive) | 95.9 µM (inactive) | > 100 µM (inactive) | > 100 µM (inactive) | 80.7 µM (inactive) | > 100 µM (inactive) | > 100 µM (inactive) | > 100 µM (inactive) | > 100 µM (inactive) | > 100 µM (inactive) | > 100 µM (inactive) | 45.2 µM (inactive) |  |  |  |
| CN(c1nc(=[N+](C)C)ss1)C1CCCCC1 | > 100 µM (inactive) | > 100 µM (inactive) | > 100 µM (inactive) | > 100 µM (inactive) | > 100 µM (inactive) | > 100 µM (inactive) | 58.5 µM (inactive) | > 100 µM (inactive) | > 100 µM (inactive) | > 100 µM (inactive) | > 100 µM (inactive) | > 100 µM (inactive) | > 100 µM (inactive) | > 100 µM (inactive) | > 100 µM (inactive) | > 100 µM (inactive) | 19.4 µM (inactive) |  |  |  |
| C1COCCN1.S=C(S)N1CCOCC1 | 6.9 µM (inactive) | 10.1 µM (inactive) | 92.3 µM (inactive) | 28.4 µM (inactive) | > 100 µM (inactive) | 36.4 µM (inactive) | 20.1 µM (inactive) | 2.55 µM (inactive) | > 100 µM (inactive) | > 100 µM (inactive) | 10.3 µM (inactive) | 18.3 µM (inactive) | 1.43 µM (inactive) | 24.9 µM (inactive) | 0.811 µM (active) | 2.59 µM (inactive) | 3.8 µM (inactive) | > 100 µM (inactive) | > 100 µM (inactive) | > 100 µM (inactive) |
| CCCC(N)C(=O)c1ccccc1 (configuration not stated) | > 100 µM (inactive) | > 100 µM (inactive) | > 100 µM (inactive) | > 100 µM (inactive) | > 100 µM (inactive) | > 100 µM (inactive) | > 100 µM (inactive) | > 100 µM (inactive) | > 100 µM (inactive) | > 100 µM (inactive) | > 100 µM (inactive) | > 100 µM (inactive) | > 100 µM (inactive) | > 100 µM (inactive) | > 100 µM (inactive) | > 100 µM (inactive) | > 100 µM (inactive) |  |  |  |
| COC1=C(NC(C)=O)C(=O)c2nc3n(c2C1=O)CCC3 | 16.7 µM (inactive) | 19.5 µM (inactive) | 20.7 µM (inactive) | 20.4 µM (inactive) | 30.3 µM (inactive) | 17.7 µM (inactive) | 25.7 µM (inactive) | 20.9 µM (inactive) | 24.9 µM (inactive) | 16.7 µM (inactive) | 18.7 µM (inactive) | 16.1 µM (inactive) | 38.3 µM (inactive) | 23.6 µM (inactive) | 26.5 µM (inactive) | 23.7 µM (inactive) | 18.2 µM (inactive) | 19.5 µM (inactive) |  | 20.8 µM (inactive) |
| COc1ccc2nc3cc(Cl)ccc3c(Sc3ccc([N+](=O)[O-])cc3C)c2c1 | > 100 µM (inactive) | > 100 µM (inactive) | > 100 µM (inactive) | > 100 µM (inactive) | > 100 µM (inactive) | > 100 µM (inactive) | > 100 µM (inactive) | > 100 µM (inactive) | > 100 µM (inactive) | > 100 µM (inactive) | > 100 µM (inactive) | > 100 µM (inactive) | > 100 µM (inactive) | > 100 µM (inactive) |  | > 100 µM (inactive) | > 100 µM (inactive) |  |  |  |
| CC(=O)O[C@H]1CC[C@@]2(C)C(=CC[C@@H]3C2CC[C@]2(C)C(=O)NC(=O)CC32)C1 (some centres not stated) | > 100 µM (inactive) | 63.5 µM (inactive) | > 100 µM (inactive) | > 100 µM (inactive) | > 100 µM (inactive) | > 100 µM (inactive) | > 100 µM (inactive) | > 56.6 µM (inactive) | > 100 µM (inactive) | > 100 µM (inactive) | 53.5 µM (inactive) | 40.3 µM (inactive) | > 100 µM (inactive) | > 100 µM (inactive) | 97.5 µM (inactive) | > 100 µM (inactive) | > 100 µM (inactive) |  |  |  |
| CC(C)C(C(=O)N1CCC[C@@H]1C(=O)OCc1ccccc1)N(C)C(=O)C(C(C)C)N(C)C(=O)[C@H](Cc1ccccc1)N(C)C(=O)[C@H](NC(=O)OC(C)(C)C)C(C)C (some centres not stated) (Boc-[dV][NMeF][ξNMeV][ξNMeV][dP]-OBn) | > 54.2 µM (inactive) | > 100 µM (inactive) | > 100 µM (inactive) | > 89.5 µM (inactive) | > 100 µM (inactive) | > 100 µM (inactive) | > 80.7 µM (inactive) | > 100 µM (inactive) | > 29.2 µM (inactive) | > 100 µM (inactive) | > 100 µM (inactive) | > 60.3 µM (inactive) | > 100 µM (inactive) | > 100 µM (inactive) | > 45.4 µM (inactive) | > 100 µM (inactive) | > 100 µM (inactive) |  |  |  |
